Patent publication US8598154B2 (Corcept Therapeutics, Inc., priority 2010, dated 2013)

Key:
[1] = molecular target: T1, Human Recombinant Glucocorticoid Receptor (Homo sapiens, UniProt P04150); test: Glucocorticoid receptor binding displacement assay with 3H-dexamethasone; conditions: displacement of 2.5 nM 3H-dexamethasone; Ki from IC50 by Cheng-Prusoff; read-out: GR Binding Ki
T1 construct: This GR was a full-length steroid hormone receptor likely to be associated with heat-shock and other endogenous proteins; host or cells: baculovirus-infected insect cells
T1 sequence (P04150 1-777): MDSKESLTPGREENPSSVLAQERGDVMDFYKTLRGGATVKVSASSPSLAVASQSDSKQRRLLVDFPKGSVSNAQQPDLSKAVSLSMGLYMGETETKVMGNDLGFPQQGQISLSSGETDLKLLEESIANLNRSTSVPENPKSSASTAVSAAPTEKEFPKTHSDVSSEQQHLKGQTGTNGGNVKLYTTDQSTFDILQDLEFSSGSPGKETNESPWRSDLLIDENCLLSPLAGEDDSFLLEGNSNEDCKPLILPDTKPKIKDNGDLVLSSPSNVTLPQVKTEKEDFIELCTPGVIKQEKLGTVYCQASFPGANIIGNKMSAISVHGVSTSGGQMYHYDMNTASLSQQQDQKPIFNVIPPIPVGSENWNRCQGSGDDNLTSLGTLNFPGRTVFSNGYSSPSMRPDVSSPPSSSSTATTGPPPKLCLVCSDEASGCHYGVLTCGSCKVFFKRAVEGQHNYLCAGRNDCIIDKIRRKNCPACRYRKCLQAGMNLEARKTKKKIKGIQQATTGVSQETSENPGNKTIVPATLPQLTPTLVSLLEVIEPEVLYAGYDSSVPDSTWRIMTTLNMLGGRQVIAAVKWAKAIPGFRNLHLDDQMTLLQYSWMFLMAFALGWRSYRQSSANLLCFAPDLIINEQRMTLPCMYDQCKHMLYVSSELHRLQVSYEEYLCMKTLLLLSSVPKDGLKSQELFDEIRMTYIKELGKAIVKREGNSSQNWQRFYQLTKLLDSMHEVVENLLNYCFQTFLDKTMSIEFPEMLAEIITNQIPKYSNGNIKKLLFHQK
Method: The source of the receptor was recombinant baculovirus-infected insect cells. This GR was a full-length steroid hormone receptor likely to be associated with heat-shock and other endogenous proteins.
For the Primary Screen, test compounds were tested at 1 μM in duplicate. These compounds were diluted from 10 mM stock in 100% DMSO. After dilution to 100 μM, 5 μl were added to 245 μl assay buffer to obtained 2 μM compound and 2% DMSO.
For the IC50 determinations, test compounds were tested at 6 concentrations in duplicate (concentration range depends on % inhibition binding that was obtained in the Primary Screen). Test compounds were diluted from 10 mM stock in 100% DMSO. The tested solutions were prepared at 2× final assay concentration in 2% DMSO/assay buffer.
All reagents and the assay plate were kept on ice during the addition of reagents. […] After the additions, the incubation mixture was mixed and incubated for 2.5 hrs at 4° C.
After 2.5 hrs incubation, unbound counts were removed with dextran coated charcoal (DCC) as follows: 25 μl of DCC solution (10% DCC in assay buffer) was added to all wells and mixed (total volume 225 μl). The plate was centrifuged at 4000 rpm for 10 minutes at 4° C. 75 μl of the supernatants (i.e.⅓ of total volume) was carefully pipetted into an optiplate. 200 μl of scintillation cocktail were added (Microscint-40, Packard Bioscience. B.V.). The plate was vigorously shaken for approx. 10 minutes and counted on Topcount.
The IC50 values were converted to Ki (the inhibition constant) using the Cheng-Prusoff equation. Test results are presented in Tablel.
Reagents: Assay buffer: 10 mM potassium phosphate buffer pH 7.6 containing 5 mM DTT, 10 mM sodium molybdate, 100 μM EDTA and 0.1% BSA.

[2] = molecular target: T2, glucocorticoid receptors (GR) in SW1353/MMTV-5 cells (Homo sapiens, UniProt P04150); test: GR functional assay using SW1353/MMTV-5 cells (MMTV-luciferase reporter); format: cell-based
T2 construct: contains endogenous glucocorticoid receptors; endogenous in cells; host or cells: SW1353/MMTV-5 (human chondrosarcoma, stably transfected with the pMAMneo-Luc reporter only)
T2 sequence (P04150 1-777): T1 sequence (P04150 1-777)
Method: SW1353/MMTV-5 is an adherent human chondrosarcoma cell line that contains endogenous glucocorticoid receptors. It was transfected with a plasmid (pMAMneo-Luc) encoding firefly luciferase located behind a glucocorticoid-responsive element (GRE) derived from a viral promoter (long terminal repeat of mouse mammary tumor virus). A stable cell line SW1353/MMTV-5 was selected with geneticin, which was required to maintain this plasmid.
SW1353/MMTV-5 cells were distributed in 96-well plates and incubated in medium (without geneticin) for 24 hrs (in the absence of CO2).

## COCCOC[C@]12Cc3cnn(-c4ccc(F)cc4)c3C=C1CCN(S(=O)(=O)c1ccc(N3CC[C@@H](F)C3)nc1)C2 [Example 33, (R)-1-(4-Fluorophenyl)-6-[6-((R)-3-fluoropyrrolidin-1-yl)-pyridine-3-sulfonyl]-4a-(2-methoxyethoxymethyl)-4,4a,5,6,7,8-hexahydro-1H-1,2,6-triaza-cyclopenta[b]naphthalene]
[1]
  Ki: 0.5 to 1 nM
[2]
  Ki: < 10 nM

## O=C(OCC1CC(O)C1)[C@]12Cc3cnn(-c4ccc(F)cc4)c3C=C1CCN(S(=O)(=O)c1ccc(N3CC[C@@H](F)C3)nc1)C2 (stereo partly drawn) [Example 61, (R)-1-(4-Fluorophenyl)-6-[6-((R)-3-fluoropyrrolidin-1-yl)-pyridine-3-sulfonyl]-1,4,5,6,7,8-hexahydro-1,2,6-triaza-cyclopenta[b]naphthalene-4a-carboxylic acid 3-hydroxy cyclobutylmethyl ester]
[1]
  Ki: > 1 nM
[2]
  Ki: 10 to 50 nM

## CN(C)CCOC(=O)[C@]12Cc3cnn(-c4ccc(F)cc4)c3C=C1CCN(S(=O)(=O)c1ccc(N3CCOCC3)nc1)C2 [Example 56, (R)-1-(4-Fluorophenyl)-6-(6-morpholin-4-yl-pyridine-3-sulfonyl]-1,4,5,6,7,8-hexahydro-1,2,6-triaza-cyclopenta[b]naphthalene-4a-carboxylic acid 2-dimethylaminoethyl ester]
[1]
  Ki: > 1 nM
[2]
  Ki: > 50 nM

## Cc1cc(COC(=O)[C@]23Cc4cnn(-c5ccc(F)cc5)c4C=C2CCN(S(=O)(=O)c2ccc(N4CCOCC4)nc2)C3)no1 [Example 57, (R)-1-(4-Fluorophenyl)-6-(6-morpholin-4-yl-pyridine-3-sulfonyl]-1,4,5,6,7,8-hexahydro-1,2,6-triaza-cyclopenta[b]naphthalene-4a-carboxylic acid 5-methylisoxazol-3-ylmethyl ester]
[1]
  Ki: 0.5 to 1 nM
[2]
  Ki: 10 to 50 nM

## CCOC[C@]12Cc3cnn(-c4ccc(F)cc4)c3C=C1CCN(S(=O)(=O)c1ccc(N3CCOCC3)nc1)C2 [Example 1, (R)-4a-Ethoxymethyl-1-(4-fluorophenyl)-6-[[6-(4-morpholinyl)-3-pyridinyl]sulfonyl]-1,4,7,8-tetrahydro-1,2,6-triazacyclopenta[b]naphthalene]
[1]
  Ki: < 0.5 nM
[2]
  Ki: < 10 nM

## O=S(=O)(c1ccc(N2CC[C@H](O)C2)nc1)N1CCC2=Cc3c(cnn3-c3ccc(F)cc3)C[C@]2(COCC2CC2)C1 [Example 29, (S)-1-{5-[(R)-4a-Cyclopropylmethoxymethyl-1-(4-fluorophenyl)-1,4,4a,5,6,7,8-hexahydro-1,2,6-triaza-cyclopenta[b]naphthalene-6-sulfonyl]pyridine-2-yl}-pyrrolidine-3-ol]
[1]
  Ki: 0.5 to 1 nM
[2]
  Ki: 10 to 50 nM

## COC[C@]12Cc3cnn(-c4ccc(F)cc4)c3C=C1CCN(S(=O)(=O)c1ccc(N3CCC3)nc1)C2 [Example 11, (R)-6-[[6-(1-Azetidinyl)-3-pyridinyl]sulfonyl]-1-(4-fluorophenyl)-4a-methoxymethyl-1,4,7,8-tetrahydro-1,2,6-triazacyclopenta[b]naphthalene]
[1]
  Ki: 0.5 to 1 nM
[2]
  Ki: 10 to 50 nM

## O=C(OCC1CC1)[C@]12Cc3cnn(-c4ccc(F)cc4)c3C=C1CCN(S(=O)(=O)c1ccc(C(F)(F)F)nc1)C2 [Example 58]
[1]
  Ki: 0.5 to 1 nM
[2]
  Ki: < 10 nM

## COC[C@]12Cc3cnn(-c4ccc(F)cc4)c3C=C1CCN(S(=O)(=O)c1ccc(N3CC[C@@H](F)C3)nc1)C2 [Example 20, (R)-1-(4-Fluorophenyl)-6-[6-((R)-3-fluoropyrrolidin-1-yl)-pyridine-3-sulfonyl]-4a-methoxymethyl-4,4a,5,6,7,8-hexahydro-1H-1,2,6-triaza-cyclopenta[b]naphthalene]
[1]
  Ki: > 1 nM
[2]
  Ki: 10 to 50 nM

## COC[C@]12Cc3cnn(-c4ccc(F)cc4)c3C=C1CCN(S(=O)(=O)c1ccc(C(F)(F)F)nc1)C2 [Example 24, (R)-1-(4-Fluorophenyl)-4a-methoxymethyl-6-(6-trifluoromethylpyridine-3-sulfonyl)-4,4a,5,6,7,8-hexahydro-1H-1,2,6-triaza-cyclopenta[b]naphthalene]
[1]
  Ki: > 1 nM
[2]
  Ki: 10 to 50 nM

## O=S(=O)(c1ccc(N2CCOCC2)nc1)N1CCC2=Cc3c(cnn3-c3ccc(F)cc3)C[C@]2(COC(F)F)C1 [Example 15, (R)-4a-Difluoromethoxymethyl-1-(4-fluorophenyl)-6-(6-morpholin-4-yl-pyridine-3-sulfonyl)-4,4a,5,6,7,8-hexahydro-1H-1,2,6-triazacyclopenta[b]naphthalene]
[1]
  Ki: > 1 nM
[2]
  Ki: 10 to 50 nM

## COC[C@]12Cc3cnn(-c4ccc(F)cc4)c3C=C1CCN(S(=O)(=O)c1ccc(N(C)C)nc1)C2 [Example 10, (R)-6-[[6-Dimethylamino-3-pyridinyl]sulfonyl]-1-(4-fluorophenyl)-4a-methoxymethyl-1,4,7,8-tetrahydro-1,2,6-triazacyclopenta[b]naphthalene]
[1]
  Ki: 0.5 to 1 nM
[2]
  Ki: 10 to 50 nM

## O=S(=O)(c1ccc(N2CC[C@@H](O)C2)nc1)N1CCC2=Cc3c(cnn3-c3ccc(F)cc3)C[C@]2(CN2CC[C@H](O)C2)C1 [Example 46, (S)-1-{(S)-1-(4-Fluorophenyl)-6-[6-((R)-3-hydroxy-pyrrolidin-3-ol)-pyridine-3-sulfonyl]-1,4,5,6,7,8-hexahydro-1,2,6-triaza-cyclopenta[b]naphthalene-4a-ylmethyl}-pyrrolidin-3-ol]
[1]
  Ki: > 1 nM

## CC(C)OC(=O)[C@]12Cc3cnn(-c4ccc(F)cc4)c3C=C1CCN(S(=O)(=O)c1ccc(N3CCOCC3)nc1)C2 [Example 49, (R)-1-(4-Fluorophenyl)-6-(6-morpholin-4-yl-pyridine-3-sulfonyl]-1,4,5,6,7,8-hexahydro-1,2,6-triaza-cyclopenta[b]naphthalene-4a-carboxylic acid isopropyl ester]
[1]
  Ki: < 0.5 nM
[2]
  Ki: 10 to 50 nM

## O=S(=O)(c1ccc(N2CC(F)C2)nc1)N1CCC2=Cc3c(cnn3-c3ccc(F)cc3)C[C@]2(COCC2CC2)C1 [Example 30, (R)-4a-Cyclopropylmethoxymethyl-6-[6-(3-fluoroazetin-1-yl)-pyridine-3-sulfonyl]-1-(4-fluorophenyl)-1,4,4a,5,6,7,8-hexahydro-1H-1,2,6-triaza-cyclopenta[b]naphthalene]
[1]
  Ki: < 0.5 nM
[2]
  Ki: < 10 nM

## COC[C@]12Cc3cnn(-c4ccc(F)cc4)c3C=C1CCN(S(=O)(=O)c1ccc(N3CCCC3)nc1)C2 [Example 5, (R)-1-(4-Fluorophenyl)-4a-methoxymethyl-6-[[6-(1-pyrrolidinyl)-3-pyridinyl]sulfonyl]-1,4,7,8-tetrahydro-1,2,6-triazacyclopenta[b]naphthalene]
[1]
  Ki: 0.5 to 1 nM
[2]
  Ki: 10 to 50 nM

## CNc1ccc(S(=O)(=O)N2CCC3=Cc4c(cnn4-c4ccc(F)cc4)C[C@]3(COC)C2)cn1 [Example 9, (R)-1-(4-Fluorophenyl)-4a-methoxymethyl-6-[[6-methylamino-3-pyridinyl]sulfonyl]-1,4,7,8-tetrahydro-1,2,6-triazacyclopenta[b]naphthalene]
[1]
  Ki: > 1 nM
[2]
  Ki: > 50 nM
